{"source": "paper PMC8330742", "about": "“New benzothieno[2,3-c]pyridines as non-steroidal CYP17 inhibitors: design, synthesis, anticancer screening, apoptosis induction, and in silico ADME profile studies” (Journal of Enzyme Inhibition and Medicinal Chemistry, 2021)", "experiment_in_all_cases": "NCI-60 SRB screen", "key": {"A498": {"system": "A498", "format": "cell-based, human", "conditions": "Homo sapiens, single dose 10^−5 M, read-out: Growth inhibition (%)"}, "MDA-MB-468": {"system": "MDA-MB-468", "format": "cell-based, human", "conditions": "Homo sapiens, single dose 10^−5 M, read-out: Growth inhibition (%)"}, "MDA-MB-231/ATCC": {"system": "MDA-MB-231/ATCC", "format": "cell-based, human", "conditions": "Homo sapiens, single dose 10^−5 M, read-out: Growth inhibition (%)"}, "BT-549": {"system": "BT-549", "format": "cell-based, human", "conditions": "Homo sapiens, single dose 10^−5 M, read-out: Growth inhibition (%)"}, "DU-145": {"system": "DU-145", "format": "cell-based, human", "conditions": "Homo sapiens, single dose 10^−5 M, read-out: Growth inhibition (%)"}, "PC-3": {"system": "PC-3", "format": "cell-based, human", "conditions": "Homo sapiens, single dose 10^−5 M, read-out: Growth inhibition (%)"}, "T-47D": {"system": "T-47D", "format": "cell-based, human", "conditions": "Homo sapiens, T47D, single dose 10^−5 M, read-out: Growth inhibition (%)"}, "RXF 393": {"system": "RXF 393", "format": "cell-based, human", "conditions": "Homo sapiens, single dose 10^−5 M, read-out: Growth inhibition (%)"}, "RPMI-8226": {"system": "RPMI-8226", "format": "cell-based", "conditions": "Homo sapiens, single dose 10^−5 M, read-out: Growth inhibition (%)"}, "OVCAR-5": {"system": "OVCAR-5", "format": "cell-based, human", "conditions": "Homo sapiens, single dose 10^−5 M, read-out: Growth inhibition (%)"}, "MCF7": {"system": "MCF7", "format": "cell-based, human", "conditions": "Homo sapiens, read-out: Growth inhibition (%)"}, "SNB-19": {"system": "SNB-19", "format": "cell-based", "conditions": "Homo sapiens; single dose 10^−5 M; SNB-19, CNS cancer; read-out: Growth inhibition (%)"}, "U251": {"system": "U251", "format": "cell-based, human", "conditions": "Homo sapiens, U-251; single dose 10^−5 M; U251, CNS cancer; read-out: Growth inhibition (%)"}, "SF-539": {"system": "SF-539", "format": "cell-based, human", "conditions": "Homo sapiens; single dose 10^−5 M; SF-539, CNS cancer; read-out: Growth inhibition (%)"}, "SNB-75": {"system": "SNB-75", "format": "cell-based, human", "conditions": "Homo sapiens; single dose 10^−5 M; SNB-75, CNS cancer; read-out: Growth inhibition (%)"}, "[1]": {"conditions": "single dose 10^−5 M, MCF-7, Breast cancer"}}, "note": "Where two headings read alike, the source gives them in different places.", "data": [{"smiles": "O=C1NC(c2cccc([N+](=O)[O-])c2)c2sc3c(F)cccc3c2C1N1CCCCC1", "note": "(centres unmarked) [Compound 6c, 8-Fluoro-1-(3-nitrophenyl)-4-(piperidin-1-yl)-1,2-dihydro[1]benzothieno [2,3-c]pyridin-3(4H)-one]", "values": [{"measurement": "inhibition at 10 µM", "setting": "A498; A498", "result": 7.34, "unit": "%"}, {"measurement": "inhibition at 10 µM", "setting": "MDA-MB-468; MDA-MB-468", "result": -9.31, "unit": "%"}, {"measurement": "inhibition at 10 µM", "setting": "MDA-MB-231/ATCC; MDA-MB-231, MDAMB231/ATCC", "result": 0.28, "unit": "%"}, {"measurement": "inhibition at 10 µM", "setting": "BT-549; BT-549", "result": 1.61, "unit": "%"}, {"measurement": "inhibition at 10 µM", "setting": "DU-145; DU-145", "result": -9.9, "unit": "%"}, {"measurement": "inhibition at 10 µM", "setting": "PC-3; PC-3", "result": 8.67, "unit": "%"}, {"measurement": "inhibition at 10 µM", "setting": "T-47D", "result": 8.12, "unit": "%"}, {"measurement": "inhibition at 10 µM", "setting": "RXF 393; RXF 393", "result": 6.16, "unit": "%"}, {"measurement": "inhibition at 10 µM", "setting": "RPMI-8226; RPMI-8226", "result": 5.15, "unit": "%"}, {"measurement": "inhibition at 10 µM", "setting": "OVCAR-5; OVCAR-5", "result": -1.56, "unit": "%"}, {"measurement": "inhibition at 10 µM", "setting": "MCF7; MCF-7, single dose 10^−5 M", "result": 10.2, "unit": "%"}]}, {"smiles": "CCN1CCN(C2=C(Cl)c3c(sc4c(F)cccc34)C(c3cccc([N+](=O)[O-])c3)N2)CC1", "note": "(centres unmarked) [Compound 8a, 4-Chloro-3–(4-ethylpiperzin-1-yl)-8-fluoro-1-(3-nitrophenyl)-1,2-dihydro [1]benzothieno[2,3-c]pyridine]", "values": [{"measurement": "inhibition at 10 µM", "setting": "A498; A498, Renal cancer", "result": 0.93, "unit": "%"}, {"measurement": "inhibition at 10 µM", "setting": "MDA-MB-468; MDA-MB-468, Breast cancer", "result": -9.64, "unit": "%"}, {"measurement": "inhibition at 10 µM", "setting": "SNB-19", "result": 1.26, "unit": "%"}, {"measurement": "inhibition at 10 µM", "setting": "U251", "result": 6.16, "unit": "%"}, {"measurement": "inhibition at 10 µM", "setting": "MDA-MB-231/ATCC; MDA-MB 231/ATCC, Breast cancer", "result": 12, "unit": "%"}, {"measurement": "inhibition at 10 µM", "setting": "BT-549; BT-549, Breast cancer", "result": 9.38, "unit": "%"}, {"measurement": "inhibition at 10 µM", "setting": "SF-539", "result": 4.31, "unit": "%"}, {"measurement": "inhibition at 10 µM", "setting": "SNB-75", "result": 11.8, "unit": "%"}, {"measurement": "inhibition at 10 µM", "setting": "DU-145; DU-145, Prostate cancer", "result": -7.24, "unit": "%"}, {"measurement": "inhibition at 10 µM", "setting": "PC-3; PC-3, Prostate cancer", "result": 7.7, "unit": "%"}, {"measurement": "inhibition at 10 µM", "setting": "T-47D; Breast cancer", "result": 11.1, "unit": "%"}, {"measurement": "inhibition at 10 µM", "setting": "RXF 393; RXF 393, Renal cancer", "result": -2.44, "unit": "%"}, {"measurement": "inhibition at 10 µM", "setting": "RPMI-8226; RPMI-8226, Leukaemia", "result": 15.4, "unit": "%"}, {"measurement": "inhibition at 10 µM", "setting": "OVCAR-5; OVCAR-5, Ovarian cancer", "result": 1.9, "unit": "%"}, {"measurement": "inhibition at 10 µM", "setting": "MCF7; [1]", "result": 4.08, "unit": "%"}]}, {"smiles": "CCN1CCN(C2=C(C#N)c3c(sc4c(F)cccc34)C(c3cccc([N+](=O)[O-])c3)N2)CC1", "note": "(centres unmarked) [Compound 8d, 4-Cyano-3-(4-ethylpiperazin-1-yl)-8-fluoro-1-(3-nitrophenyl)-1,2-dihydro [1]benzothieno[2,3-c]pyridine]", "values": [{"measurement": "inhibition at 10 µM", "setting": "A498; A498, Renal cancer", "result": 12.1, "unit": "%"}, {"measurement": "inhibition at 10 µM", "setting": "MDA-MB-468; MDA-MB-468, Breast cancer", "result": -2.69, "unit": "%"}, {"measurement": "inhibition at 10 µM", "setting": "SNB-19", "result": -1.27, "unit": "%"}, {"measurement": "inhibition at 10 µM", "setting": "U251", "result": 0.9, "unit": "%"}, {"measurement": "inhibition at 10 µM", "setting": "MDA-MB-231/ATCC; MDA-MB 231/ATCC, Breast cancer", "result": 19.8, "unit": "%"}, {"measurement": "inhibition at 10 µM", "setting": "BT-549; BT-549, Breast cancer", "result": 1.51, "unit": "%"}, {"measurement": "inhibition at 10 µM", "setting": "SF-539", "result": 6.11, "unit": "%"}, {"measurement": "inhibition at 10 µM", "setting": "SNB-75", "result": 8.49, "unit": "%"}, {"measurement": "inhibition at 10 µM", "setting": "DU-145; DU-145, Prostate cancer", "result": -11.2, "unit": "%"}, {"measurement": "inhibition at 10 µM", "setting": "PC-3; PC-3, Prostate cancer", "result": 9.1, "unit": "%"}, {"measurement": "inhibition at 10 µM", "setting": "T-47D; Breast cancer", "result": 22.3, "unit": "%"}, {"measurement": "inhibition at 10 µM", "setting": "RXF 393; RXF 393, Renal cancer", "result": -3.67, "unit": "%"}, {"measurement": "inhibition at 10 µM", "setting": "RPMI-8226; RPMI-8226, Leukaemia", "result": 1.72, "unit": "%"}, {"measurement": "inhibition at 10 µM", "setting": "OVCAR-5; OVCAR-5, Ovarian cancer", "result": -4.1, "unit": "%"}, {"measurement": "inhibition at 10 µM", "setting": "MCF7; [1]", "result": 9.44, "unit": "%"}]}, {"smiles": "N#CC1=C(N2CCOCC2)NC(c2cccc([N+](=O)[O-])c2)c2sc3c(F)cccc3c21", "note": "(centres unmarked) [Compound 8e, 4-Cyano-3-(4-morpholino)-8-fluoro-1-(3-nitrophenyl)-1,2-dihydro [1]benzothieno[2,3-c]pyridine]", "values": [{"measurement": "inhibition at 10 µM", "setting": "A498; A498, Renal cancer", "result": 3.17, "unit": "%"}, {"measurement": "inhibition at 10 µM", "setting": "MDA-MB-468; MDA-MB-468, Breast cancer", "result": -11, "unit": "%"}, {"measurement": "inhibition at 10 µM", "setting": "SNB-19", "result": -0.92, "unit": "%"}, {"measurement": "inhibition at 10 µM", "setting": "U251", "result": -2.2, "unit": "%"}, {"measurement": "inhibition at 10 µM", "setting": "MDA-MB-231/ATCC; MDA-MB 231/ATCC, Breast cancer", "result": 13.4, "unit": "%"}, {"measurement": "inhibition at 10 µM", "setting": "BT-549; BT-549, Breast cancer", "result": 1.14, "unit": "%"}, {"measurement": "inhibition at 10 µM", "setting": "SF-539", "result": 3.33, "unit": "%"}, {"measurement": "inhibition at 10 µM", "setting": "SNB-75", "result": 7.28, "unit": "%"}, {"measurement": "inhibition at 10 µM", "setting": "DU-145; DU-145, Prostate cancer", "result": -12.3, "unit": "%"}, {"measurement": "inhibition at 10 µM", "setting": "PC-3; PC-3, Prostate cancer", "result": 12.3, "unit": "%"}, {"measurement": "inhibition at 10 µM", "setting": "T-47D; Breast cancer", "result": -4.79, "unit": "%"}, {"measurement": "inhibition at 10 µM", "setting": "RXF 393; RXF 393, Renal cancer", "result": -2.93, "unit": "%"}, {"measurement": "inhibition at 10 µM", "setting": "RPMI-8226; RPMI-8226, Leukaemia", "result": 6.66, "unit": "%"}, {"measurement": "inhibition at 10 µM", "setting": "OVCAR-5; OVCAR-5, Ovarian cancer", "result": 0.99, "unit": "%"}, {"measurement": "inhibition at 10 µM", "setting": "MCF7; [1]", "result": -1.68, "unit": "%"}]}, {"smiles": "N#CC1=C(Nc2ccccc2F)NC(c2cccc([N+](=O)[O-])c2)c2sc3c(F)cccc3c21", "note": "(centres unmarked) [Compound 10, 4-Cyano-8-fluoro-3((2-fluorophenyl)amino)-1–(3-nitrophenyl)-1,2-dihydro[1]benzothieno[2,3-c]pyridine]", "values": [{"measurement": "inhibition at 10 µM", "setting": "A498; A498, Renal cancer", "result": 3.94, "unit": "%"}, {"measurement": "inhibition at 10 µM", "setting": "MDA-MB-468; MDA-MB-468, Breast cancer", "result": -7.35, "unit": "%"}, {"measurement": "inhibition at 10 µM", "setting": "SNB-19", "result": -3.45, "unit": "%"}, {"measurement": "inhibition at 10 µM", "setting": "U251", "result": -9.9, "unit": "%"}, {"measurement": "inhibition at 10 µM", "setting": "MDA-MB-231/ATCC; MDA-MB 231/ATCC, Breast cancer", "result": 17.4, "unit": "%"}, {"measurement": "inhibition at 10 µM", "setting": "BT-549; BT-549, Breast cancer", "result": 1.04, "unit": "%"}, {"measurement": "inhibition at 10 µM", "setting": "SF-539", "result": 6.04, "unit": "%"}, {"measurement": "inhibition at 10 µM", "setting": "SNB-75", "result": 10.1, "unit": "%"}, {"measurement": "inhibition at 10 µM", "setting": "DU-145; DU-145, Prostate cancer", "result": -8.61, "unit": "%"}, {"measurement": "inhibition at 10 µM", "setting": "PC-3; PC-3, Prostate cancer", "result": 7.8, "unit": "%"}, {"measurement": "inhibition at 10 µM", "setting": "T-47D; Breast cancer", "result": -2.94, "unit": "%"}, {"measurement": "inhibition at 10 µM", "setting": "RXF 393; RXF 393, Renal cancer", "result": -5.32, "unit": "%"}, {"measurement": "inhibition at 10 µM", "setting": "RPMI-8226; RPMI-8226, Leukaemia", "result": 1.46, "unit": "%"}, {"measurement": "inhibition at 10 µM", "setting": "OVCAR-5; OVCAR-5, Ovarian cancer", "result": -3.49, "unit": "%"}, {"measurement": "inhibition at 10 µM", "setting": "MCF7; [1]", "result": 4.92, "unit": "%"}]}]}
